Article doi:10.1101/2024.10.18.618978v3 (biorxiv, 2026)

Columns and labels:
[1] = target: T1, SpeG (Staphylococcus aureus, UniProt A0A0H2XGJ0); assay: thermal shift assay; format: binding; conditions: 1.6 μM SpeG, 3-fold dilution series of compound; Tm decreased
T1 sequence (A0A0H2XGJ0 1-165): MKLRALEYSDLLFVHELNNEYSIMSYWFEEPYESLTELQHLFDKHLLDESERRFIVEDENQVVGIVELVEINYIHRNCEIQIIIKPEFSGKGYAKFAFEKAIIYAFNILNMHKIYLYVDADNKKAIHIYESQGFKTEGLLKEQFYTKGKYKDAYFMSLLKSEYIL

[2] = target: SAT1 (Homo sapiens, UniProt P21673); assay: colorimetric DTNB SSAT assay; format: biochemical
[3] = target: T1, SpeG; assay: colorimetric DTNB SSAT assay; format: biochemical

Sequence of SAT1 (P21673 whole entry): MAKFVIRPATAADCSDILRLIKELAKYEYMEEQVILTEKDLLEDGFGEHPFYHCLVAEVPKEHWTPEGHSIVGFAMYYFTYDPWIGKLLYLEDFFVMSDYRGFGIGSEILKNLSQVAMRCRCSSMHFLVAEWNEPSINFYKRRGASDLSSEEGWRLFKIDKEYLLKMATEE

Row | Compound | Tm [1] | Ki [2] | Ki [3]
1 | CCCCCCCCCCCCNCCCN [OES2-0017] | OES2-0017 titration decreased SpeG Tm | – | –
2 | CCCCCCCCNCCCN [OES2-0045] | – | 228 ± 49.7 µM | –
3 | CCCCCCCCCCCCN [OES2-0052] | – | 160 ± 50.4 µM | 160 ± 38.3 µM
4 | CCCCCCCCCCN [OES2-0077] | – | 743 ± 250 µM | 853 ± 238 µM
5 | CCCCCCCCNCCN [OES2-0085] | – | – | 1270 ± 263 µM
6 | CCCCCCCCCCNCCN [OES2-0086] | – | – | 1200 ± 425 µM
